From patent US11173146B2, “Selective activators of the intermediate conductance CA2+activated K+ channel KCa3.1 and their methods of use” (The Regents of the University of California, priority 2014, dated 2021) come the findings set out here.

One data set addresses T1, mKV3.1 (Mus musculus, UniProt P15388).
T1 construct: expressed in transfected cells; host or cells: L929
Nature of the data set: KV3.1 current inhibition (L929 cells). Type of data set: cell-based. From the text: (§1) Cells, Cell lines and Clones. HEK-293 cells stably expressing hKCa2.1, rKCa2.2 and hKCa3.1 were obtained from Khaled Houamed (University of Chicago, Ill.) in 2002 and have been maintained in the Wulff laboratory at the University of California since then. The cloning of hKCa2.3 (19 CAG repeats) and hKCa3.1 has been previously described (Wulff et al., 2000). The hKCa2.3 clone was later stably expressed in COS-7 cells at Aurora Biosciences Corp., San Diego, Calif. […]
(§2) Electrophysiology. […] For manual experiments COS-7, HEK-293 or L929 cells were trypsinized, plated onto poly-L-lysine coated coverslips and typically recorded from between 20 min and 4 h after plating. […] Free Ca^2+ concentrations were calculated with MaxChelator assuming a temperature of 25° C., a pH of 7.2 and an ionic strength of 160 mM. To reduce contaminating currents from native chloride channels in COS-7 cells, KCa2.3 currents were recorded with an internal pipette solution containing (in mM): 145 K^+ aspartate, 2 MgCl2, 10 HEPES, 10 EGTA and 7.4 CaCl2 (500 nM free Ca^2+), pH 7.2, 290-310 mOsm. […] KV2.1, Kv1.3, and KV3.1 currents were recorded in normal Ringer solution with a Ca^2+-free KF-based pipette solution as previously described (Schmitz et al., 2005). HERG (KV11.1) currents were recorded with a 2-step pulse from −80 mV first to 20 mV for 1 sec and then to −50 mV for 1 sec. […]

Data set [1] in a line: Plasma protein binding by ultrafiltration. Type of data set: in vitro ADME. The settings on record: rat plasma, 10 μM compound. The method, then: Rat plasma (500 μl) was spiked with 10 μM of compound in 1% dimethylsulfoxide and the sample loaded onto a Microcon YM-30 Centrifugal Filter (Millipore Corp., Bedford, Mass., USA) and centrifuged at 13,500 g for 30 minutes at room temperature. The retentate was collected by inverting the filter into an Eppendorf tube and spinning at 13,500 g for 15 minutes.

In another data set the target is T2, hKV2.1 (Homo sapiens, UniProt Q14721).
T2 construct: host or cells: HEK293
T2 sequence (Q14721 whole entry): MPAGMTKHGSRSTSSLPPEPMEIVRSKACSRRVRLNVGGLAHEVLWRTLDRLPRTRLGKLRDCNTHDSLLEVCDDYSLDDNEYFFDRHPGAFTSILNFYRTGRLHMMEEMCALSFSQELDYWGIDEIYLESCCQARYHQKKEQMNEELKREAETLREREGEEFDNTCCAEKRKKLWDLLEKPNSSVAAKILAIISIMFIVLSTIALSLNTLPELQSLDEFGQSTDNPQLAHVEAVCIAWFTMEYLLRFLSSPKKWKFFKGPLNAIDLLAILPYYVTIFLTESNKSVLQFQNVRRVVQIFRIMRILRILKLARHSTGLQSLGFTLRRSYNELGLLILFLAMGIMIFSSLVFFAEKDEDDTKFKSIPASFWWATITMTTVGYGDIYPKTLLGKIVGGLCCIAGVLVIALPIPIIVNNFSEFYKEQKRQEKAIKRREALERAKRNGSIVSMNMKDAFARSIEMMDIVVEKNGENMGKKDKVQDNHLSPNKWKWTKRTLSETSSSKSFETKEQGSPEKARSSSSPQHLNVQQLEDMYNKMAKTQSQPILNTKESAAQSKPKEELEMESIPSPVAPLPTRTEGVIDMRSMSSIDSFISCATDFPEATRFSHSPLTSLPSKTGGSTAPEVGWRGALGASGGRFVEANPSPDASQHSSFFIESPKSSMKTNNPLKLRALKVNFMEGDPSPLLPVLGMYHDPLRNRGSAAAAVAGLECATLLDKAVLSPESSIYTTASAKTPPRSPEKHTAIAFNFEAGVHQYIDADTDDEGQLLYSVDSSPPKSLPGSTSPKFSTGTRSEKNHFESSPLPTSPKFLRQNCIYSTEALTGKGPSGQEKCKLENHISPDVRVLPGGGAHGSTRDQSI
The data set can be described thus: KV2.1 current inhibition (HEK293). Type of data set: cell-based.
Description: as §1, §2

T1 sequence (P15388 whole entry): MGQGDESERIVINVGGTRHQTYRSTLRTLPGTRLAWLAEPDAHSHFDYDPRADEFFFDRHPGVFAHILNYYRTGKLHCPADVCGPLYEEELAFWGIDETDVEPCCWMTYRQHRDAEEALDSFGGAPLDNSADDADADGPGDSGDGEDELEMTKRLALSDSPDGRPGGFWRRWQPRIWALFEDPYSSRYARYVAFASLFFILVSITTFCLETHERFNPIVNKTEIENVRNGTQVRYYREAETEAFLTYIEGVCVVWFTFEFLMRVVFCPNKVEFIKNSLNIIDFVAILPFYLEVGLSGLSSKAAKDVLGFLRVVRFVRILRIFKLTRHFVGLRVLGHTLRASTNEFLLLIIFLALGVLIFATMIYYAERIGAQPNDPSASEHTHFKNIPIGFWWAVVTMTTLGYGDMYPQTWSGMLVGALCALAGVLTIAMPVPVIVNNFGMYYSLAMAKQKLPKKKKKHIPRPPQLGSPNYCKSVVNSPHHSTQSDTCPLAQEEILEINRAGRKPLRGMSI

On to `Cc1cc2sc(N)nc2c2ccccc12` [SKA-111, 5-methylnaphtho[1,2-d]thiazol-2-amine], for which the inhibition at 25 µM on mKV3.1 (at 25 μM) was 32.9 ± 1.3%; on hKV2.1 (at 25 μM), 37.3 ± 9%. This molecule had a fraction unbound at 30 min, 10 μM in data set [1] of 0.41.

With `Cc1cc2nc(N)oc2c2ccccc12` [SKA-121, 5-Methylnaphtho[2,1-d]oxazol-2-amine], the inhibition at 50 µM against mKV3.1 (at 50 μM) was 46.3 ± 16.5%; at hKV2.1 (at 50 μM), 43.2 ± 12.5%. The molecule also gave a fraction unbound at 30 min, 10 μM in data set [1] of 0.19.

In general, inhibition refers to the percentage by which the read-out fell short of the control. Low values mean a response near the control, high ones a response far below the control. One may read the fraction unbound as the share of the substance not bound to proteins or other matrix.
